This is an account of results in paper PMC10604990, “Characterization and Investigation of Novel Benzodioxol Derivatives as Antidiabetic Agents: An In Vitro and In Vivo Study in an Animal Model” (Biomolecules, 2023).

Like-named read-outs stand apart in the source and are kept apart here.

One assay concerns LX-2. Briefly: MTS cytotoxicity assay, LX-2. It is filed as cell-based. The procedure:
(§1) Cultivation of the cancer cell lines MCF-7, Hep3B, HepG2, and Caco-2 HeLa was conducted in RPMI 1640 medium, whereas LX-2, B16-F1, and HEK-293T cells were grown in DMEM medium. These cells were incubated at 37 °C in a 5% CO2 atmosphere within a humid setting. In a 96-well plate, 1000 cells were seeded in each well. Following a 24 h incubation, they were exposed to various concentrations of Ia-IIe compounds (300, 100, 50, and 10 µM) for 72 h. The Cell-Tilter 96® (Promega Corporation, Madison, WI, USA) Aqueous One Solution Cell Proliferation (MTS) bioassay was utilized to determine the cell viability post-culture. For this assay, 90 µL of medium and 10 µL of MTS solution were added to every well, and the plates were then placed in a 37 °C environment for 2 to 4 h. The absorbance was subsequently assessed at a wavelength of 490 nm using a UV–Vis spectrophotometer.

The next assay relates to HepG2. In words: MTS cytotoxicity assay, HepG2. It is filed as cell-based. The procedure: as §1
On the technique in general: Formazan colour is commonly taken as a measure of viable cells.

The next assay concerns Caco-2. Briefly: MTS cytotoxicity assay, Caco-2. Format: cell-based. The procedure:
as §1

A further assay concerns Hep3B. Briefly: MTS cytotoxicity assay, Hep3B. Particulars: 72 h. Format: cell-based. The procedure: as §1
A further assay has as its system HeLa. Briefly: MTS cytotoxicity assay, HeLa. It is filed as cell-based. Particulars: 72 h. The procedure: as §1
Another assay deals with MCF-7. Briefly: MTS cytotoxicity assay, MCF-7. It is filed as cell-based. The procedure: as §1
Assay [1] concerns the target T1, α-amylase (Homo sapiens, UniProt P04746).
T1 sequence (P04746 16-511): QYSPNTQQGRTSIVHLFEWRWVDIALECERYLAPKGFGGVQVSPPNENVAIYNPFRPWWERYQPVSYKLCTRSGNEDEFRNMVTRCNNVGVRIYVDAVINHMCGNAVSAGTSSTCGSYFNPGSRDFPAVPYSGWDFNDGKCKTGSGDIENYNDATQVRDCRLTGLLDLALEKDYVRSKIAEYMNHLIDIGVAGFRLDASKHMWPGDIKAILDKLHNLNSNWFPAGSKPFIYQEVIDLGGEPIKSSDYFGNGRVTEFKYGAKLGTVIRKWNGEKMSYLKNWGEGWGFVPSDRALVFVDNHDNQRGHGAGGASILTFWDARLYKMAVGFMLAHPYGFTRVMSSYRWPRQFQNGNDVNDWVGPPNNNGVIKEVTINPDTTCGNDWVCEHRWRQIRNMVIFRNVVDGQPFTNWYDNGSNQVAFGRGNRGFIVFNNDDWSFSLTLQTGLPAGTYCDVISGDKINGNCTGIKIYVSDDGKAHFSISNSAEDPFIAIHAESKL
The note with it: cited from earlier work.

A further assay concerns Hek293t normal cell line. In words: MTS cytotoxicity assay, Hek293t normal cell line. The note with it: 72 h. Format: cell-based. The procedure:
as §1

Assay [2] has as its target T1, α-amylase. Briefly: α-amylase inhibition, DNSA method. It is filed as biochemical.
Description: The experiment was conducted using the 3,5-dinitrosalicylic acid (DNSA) approach. Buffer solutions were prepared, containing 20 mm of both sodium phosphate monobasic and sodium phosphate dibasic, and were augmented with 6.7 mm sodium chloride (NaH2PO4 and Na2HPO4, each at 6.7 mm NaCl, pH 6.9). A beaker was filled partially with NaH2PO4 and NaCl solution and stirred magnetically, and the pH was meticulously calibrated using a specialized electrode. The desired pH of 6.9 was achieved by adding more NaH2PO4 and NaCl to the solution.
The stock solution consisted of synthesized molecules at a 1 mg/mL concentration, harmoniously blended with no less than 10% DMSO in a 1:100 dilution. This mixture was then united with a buffer composed of Na2HPO4/NaH2PO4 (0.02 M) and NaCl (0.006 M), maintaining a pH of 6.9. From this, working solutions were created at concentrations ranging from 0.1 to 100 µM. These comprised 0.01, 0.1, 0.5, 1, and 5 mL of the synthesized molecules diluted with the pH-adjusted buffer and brought to a total volume of 10 mL using VF (10 mL).
This transformative amalgam journeyed to attain a final volume of 100 mL, seamlessly infused with the phosphate buffer discussed earlier, harmonizing within a 100 mL volumetric flask (VF). Meanwhile, the starch solution, poised at a concentration of 1% (w/v), saw the suspension of 1000 mg of starch in 100 mL of distilled water, orchestrated with finesse within a 100 mL VF. This aqueous symphony unfolded in a temperate embrace of 37 °C within a water bath, occasionally stirring to deter any starch precipitation inklings.
The overture of this reaction was orchestrated by DNSA—a reactive virtuoso that commences its dance upon encountering reducing sugars, conjuring forth 3-amino-5-nitro salicylic acid, a spectral charmer at the wavelength of around 540 nm. The creation of DNSA itself, an artful process, saw the dissolution of 12 g of sodium potassium tartrate tetrahydrate within 8.0 mL of 2 M NaOH, further entwined with 20 mL of the enchanted 96 mm 3.5-dinitrosalicylic acid solution. Thus, the stage was set for this chemical ballet, where reactions waltzed, and absorbance painted a canvas of molecular magic. […]
The climax of this reaction narrative was unveiled as 200 μL of DNSA entered the stage, promptly followed by a vigorous boiling performance for 10 min, orchestrated at the harmonious temperature range of 85 to 90 °C. […] In a final crescendo, the resounding absorbance at 540 nm resounded as it was masterfully measured utilizing the UV-Visible spectrophotometer.
In order to produce the initial state, the blank canvas was used to substitute the synthesized chemicals, adding 200 μL of buffer. […] This captivating performance culminated with quantifying enzyme inhibitory activity expressed as a percentage of inhibition. […]
Assay [3] has as its system streptozotocin-induced diabetic mice. Briefly: In vivo hypoglycemic effect in STZ-induced diabetic mice. The note with it: five daily i.p. doses of 10 mg/kg, fasting, 252.2 mg/dL before treatment, untreated diabetes group 274.25 mg/dL. The text has this:
The mice-related investigations were meticulously conducted, adhering strictly to the protocols outlined by the Association for Assessment and Accreditation of Laboratory Animal Care International. The ethical underpinning of these experiments was formally acknowledged, having secured the approval of the Institutional Review Board of the Animal House and Use Committee at An-Najah National University (approval number: Med. June. 2023/9).
The study’s protagonists consisted of 18 healthy adult mice gracing the stage with a weight symphony ranging from 17 to 27 g. These cherished participants were thoughtfully accommodated in groups of three within the hospitable confines of the animal facility. In an overture of preparation, the mice were granted 7 days to acquaint themselves with the ambiance of the animal facility, enveloped within the embrace of controlled temperature conditions, a harmonious 25 ± 2 °C.
In the experiment, the mice were subjected to diabetes induction via an intraperitoneal (i.p.) injection of streptozotocin (STZ). […] In order to ascertain the induction of diabetes, the fasting blood glucose levels of the mice were assessed on the fourth day after the injection of STZ. […]
In this research, the fasting blood glucose levels for all groups were measured on the first day before the induction of diabetes using a streptozotocin (STZ) injection. […]

The subject of a further assay is cancer cell lines. Briefly: MTS cytotoxicity assay, range over cell lines. Format: cell-based. The procedure:
as §1

Assay [4] has as its target T1, α-amylase. The note with it: control compound IIe; cited from earlier work.

For orientation: IC50 means the point on the concentration scale where inhibition reaches its midpoint. In the case of `O=c1[nH]cc(F)c(=O)[nH]1` [Compound 5-FU, reference compound], the IC50 in the assay on LX-2 (72 h) is 0.178 ± 0.11 µM; in the assay with HepG2 (72 h) it was 4.07 ± 1.42 µM; with Caco-2 (72 h), 4.75 ± 1.71 µM; in the assay with Hep3B it was 5.11 ± 1.67 µM; with HeLa, 7.79 ± 1.6 µM; with MCF-7 (72 h), 6.51 ± 1.82 µM.
Turning to `Oc1cc(O)cc(Oc2c(O)cc(Oc3c(O)cc(O)cc3O)cc2O)c1` [DDBT, 2-(4-(3,5-dihydroxyphenoxy)-3,5-dihydroxyphenoxy) benzene-1,3,5-triol], the half-inhibitory concentration (IC50) on α-amylase [1] was 8.5 µM.
Consider `COc1cccc2c1C(=O)c1c(O)c3c(c(O)c1C2=O)C[C@@](O)(C(=O)CO)C[C@@H]3O[C@H]1C[C@H](N)[C@H](O)[C@H](C)O1` [DOX, reference compound], for which the 50% inhibitory concentration (IC50) in the assay with LX-2 (72 h) is 0.21 ± 0.12 µM; in the assay with HepG2 (72 h) it was below 0.01 µM; in the assay on Caco-2 (72 h), 0.024 ± 0.001 µM; in the assay on Hek293t normal cell line, 0.038 ± 0.02 µM; in the assay on Hep3B, 0.025 ± 0.005 µM; with HeLa, below 0.01 µM. Also, 0.053 ± 0.009 µM corresponded to half-maximal inhibition in the assay with MCF-7 (72 h) (IC50).
`O=C(Nc1ccccc1)c1ccc2c(c1)OCO2` [IIa, N-phenylbenzo[d][1,3]dioxole-5-carboxamide]: the IC50 in the assay on LX-2 (Homo sapiens, LX-2, 72 h) is above 300 µM; in the assay with HepG2 (Homo sapiens, HepG2, 72 h), above 300 µM; in the assay on Caco-2 (Homo sapiens, Caco-2, 72 h) it was above 300 µM; in the assay on Hek293t normal cell line, above 300 µM; with Hek293t normal cell line (Homo sapiens, HEK-293T), above 150 µM; with Hep3B (Homo sapiens, Hep3B) it was above 300 µM. Further, the half-maximal inhibitory concentration (IC50) is above 300 µM in the assay with HeLa (Homo sapiens, HeLa); above 300 µM in the assay on MCF-7 (Homo sapiens, MCF7, 72 h); 0.85 ± 0.18 µM against α-amylase [2].
For the compound `COc1cc(NC(=O)c2ccc3c(c2)OCO3)cc(OC)c1OC` [IIb, N-(3,4,5-trimethoxyphenyl)benzo[d][1,3]dioxole-5-carboxamide], the IC50 in the assay with LX-2 (Homo sapiens, LX-2, 72 h) was 96.6 ± 2.7 µM; in the assay on HepG2 (Homo sapiens, HepG2, 72 h), above 300 µM; in the assay on Caco-2 (Homo sapiens, Caco-2, 72 h), above 300 µM; with Hek293t normal cell line (Homo sapiens, HEK-293T) it was above 300 µM; in the assay on Hep3B (Homo sapiens, Hep3B), above 300 µM; with HeLa (Homo sapiens, HeLa) it was above 300 µM. The compound also had an IC50 with MCF-7 (Homo sapiens, MCF7, 72 h) above 300 µM.
Consider `O=C(Nc1cccc(C(F)(F)F)c1)c1ccc2c(c1)OCO2` [IIc, N-(3-(trifluoromethyl)phenyl)benzo[d][1,3]dioxole-5-carboxamide], for which the IC50 in the assay on LX-2 (Homo sapiens, LX-2, 72 h) was above 300 µM; in the assay with HepG2 (Homo sapiens, HepG2, 72 h) it was above 300 µM; in the assay with Caco-2 (Homo sapiens, Caco-2, 72 h), above 300 µM; with Hek293t normal cell line, 156 ± 2.98 µM; with Hek293t normal cell line (Homo sapiens, HEK-293T) it was above 150 µM; in the assay with Hep3B (Homo sapiens, Hep3B), above 300 µM. Also, the IC50 in the assay on HeLa (Homo sapiens, HeLa) is above 300 µM; with MCF-7 (Homo sapiens, MCF7, 72 h), above 300 µM. Besides, the “blood glucose level after treatment” value in assay [3] turned out to be 173.8 mg/dL.
In the case of `COc1ccccc1Oc1ccc(NC(=O)c2ccc3c(c2)OCO3)cc1` [IId, N-(4-(2-methoxyphenoxy)phenyl)benzo[d][1,3]dioxole-5-carboxamide], the IC50 in the assay on LX-2 (Homo sapiens, LX-2, 72 h) is 31.4 ± 2.71 µM; in the assay with HepG2 (Homo sapiens, HepG2, 72 h) it was 55.3 ± 2.72 µM; in the assay with Caco-2 (Homo sapiens, Caco-2, 72 h), above 300 µM; in the assay with Hek293t normal cell line (Homo sapiens, HEK-293T), above 300 µM; with Hep3B (Homo sapiens, Hep3B) it was 65.2 ± 2.53 µM; in the assay on cancer cell lines (Homo sapiens, Caco-2, four cancer cell lines / all cell lines except Caco-2), 26 to 65 µM. The IC50 was 26.6 to 65.2 µM in the assay on cancer cell lines (four cancer cell lines / all cell lines except Caco-2); 26.6 ± 2.41 µM in the assay on HeLa (Homo sapiens, HeLa); 55.8 ± 2.51 µM with MCF-7 (Homo sapiens, MCF7, 72 h); 5.76 ± 1.92 µM against α-amylase [2].
Consider `COc1cc(NC(=O)c2ccc3c(c2)OCO3)cc(OC)c1` [IIe, N-(3,5-dimethoxyphenyl)benzo[d][1,3]dioxole-5-carboxamide], for which the concentration for half-maximal inhibition (IC50) in the assay with LX-2 (Homo sapiens, LX-2, 72 h) was 183 ± 2 µM; in the assay with HepG2 (Homo sapiens, HepG2, 72 h), above 300 µM; with Caco-2 (Homo sapiens, Caco-2, 72 h) it was above 300 µM; on α-amylase [4] it was 15 ± 3.52 µM; with Hek293t normal cell line (Homo sapiens, HEK-293T) it was above 300 µM; in the assay with Hep3B (Homo sapiens, Hep3B) it was above 300 µM. The IC50 with HeLa (Homo sapiens, HeLa) was above 300 µM; in the assay on MCF-7 (Homo sapiens, MCF7, 72 h), above 300 µM.
Take `COc1cc(NC(=O)Cc2ccc3c(c2)OCO3)c(OC)cc1Cl` [Ia, 2-(benzo[d][1,3]dioxol-5-yl)-N-(4-chloro-2,5-dimethoxyphenyl)acetamide]: the half-inhibitory concentration (IC50) in the assay with LX-2 (Homo sapiens, LX-2, 72 h) was 70.6 ± 2.45 µM; with HepG2 (Homo sapiens, HepG2, 72 h), 169 ± 2.16 µM; with Caco-2 (Homo sapiens, Caco-2, 72 h) it was above 300 µM; in the assay on Hek293t normal cell line (Homo sapiens, HEK-293T) it was above 300 µM; in the assay with Hep3B (Homo sapiens, Hep3B), 197 ± 1.99 µM; in the assay with HeLa (Homo sapiens, HeLa) it was 43.6 ± 2.97 µM. Moreover, the IC50 in the assay with MCF-7 (Homo sapiens, MCF7, 72 h) came out at 124 ± 2.73 µM; at α-amylase [2], 16.8 ± 1.55 µM.
On to `O=C(Cc1ccc2c(c1)OCO2)Nc1ccccc1` [Ib, 2-(benzo[d][1,3]dioxol-5-yl)-N-phenylacetamide], for which the IC50 with LX-2 (Homo sapiens, LX-2, 72 h) is 280.6 ± 2.33 µM; in the assay on HepG2 (Homo sapiens, HepG2, 72 h) it was above 300 µM; with Caco-2 (Homo sapiens, Caco-2, 72 h), above 300 µM; with Hek293t normal cell line (Homo sapiens, HEK-293T), 269.2 ± 1.73 µM; with Hep3B (Homo sapiens, Hep3B), above 300 µM; with HeLa (Homo sapiens, HeLa), above 300 µM. Besides, the half-inhibitory concentration (IC50) in the assay on MCF-7 (Homo sapiens, MCF7, 72 h) was above 300 µM.
As to `COc1ccc(OC)c(NC(=O)Cc2ccc3c(c2)OCO3)c1` [Ic, 2-(benzo[d][1,3]dioxol-5-yl)-N-(2,5-dimethoxyphenyl)acetamide], the IC50 in the assay with LX-2 (Homo sapiens, LX-2, 72 h) was 209 ± 2.2 µM; with HepG2 (Homo sapiens, HepG2, 72 h), above 300 µM; with Caco-2 (Homo sapiens, Caco-2, 72 h) it was above 300 µM; in the assay with Hek293t normal cell line (Homo sapiens, HEK-293T) it was 207 ± 2.59 µM; with Hep3B (Homo sapiens, Hep3B), above 300 µM; with HeLa (Homo sapiens, HeLa), above 300 µM. For the same compound, the IC50 in the assay with MCF-7 (Homo sapiens, MCF7, 72 h) is above 300 µM; at α-amylase [2], 16.4 ± 1.58 µM.
On to `N#C/C=C1/C=C(c2ccc(Br)cc2)N=C2Sc3ccccc3N21` [St.1], for which the IC50 on α-amylase [1] is 15.3 µM.
On to `COC(=O)Cc1cc2c(cc1C(=O)c1ccccc1Br)OCO2` [St.2], for which the half-inhibitory concentration (IC50) on α-amylase [1] (earlier work of the same team) is 6.81 µM.
As to `COc1cc(OC)cc(C(=O)c2ccc3c(c2)OCO3)c1` [St.3], the 50% inhibitory concentration (IC50) on α-amylase [1] (earlier work of the same team) is 15 µM.
